# Source: patent US8592603B2, “Synthesis of 2-(4-aminophenyl) benzothiazole derivatives and use thereof” (Kaohsiung Medical University, priority 2011, dated 2013)
# Legend:
# Type in all cases: cell-based, human
# [1] = test system: caspase-3; test: Caspase-3 colorimetric assay; conditions: BCC cells, 6f-UVA treatment, compared with untreated control, p<0.01 (FIG. 4A)
# Method: (§1) (A) The increased enzymatic activities of the caspase-3 in apoptotic were determined by colorimetric reaction. The cleavage of peptide by the caspase releases the chromophore pNA (p-nitroaniline), which can be quantified spectrophotometrically at a wavelength of 405 nm. (B) Dot plots for BCC cells treated with various concentrations of 6f-UVA and then stained with PI and an annexin V-FITC conjugate specifically detecting the exposure of PS residues at the cell surface. (C) Morphological observation and annexin V/PI double stain were used for the detection of fibroblasts apoptosis. Approximately 10000 cells from each group were analyzed by flow cytometry. Data shown are of a representative experiment repeated three times with similar results. ** p<0.01 as compared with the control.
# Twenty-four hours after irradiation, cells were collected by centrifugation, washed once with PBS, and cell pellets were counted and resuspended in 25 μL/1×10^6 cells of cold lysis buffer and homogenized. Homogenates were centrifuged at 12,000 rpm for 10 min at 4° C., supernatants were used for measuring caspase-3 activity using an ELISA-based assay, according to the manufacturer's instructions. (R&D Systems, Minneapolis, Minn.). The results were presented as mean±SD.
# [2] = test system: BCC cells; test: Annexin V and PI binding assay; conditions: for apoptotic cells (annexin V+/PI−): BCC cells, 1 J/cm^2 UVA
# Method: as §1
# To assess the simultaneous observation of early phase of apoptotic and necrotic features, BCC cells were treated with various concentrations (0-4 μM) of Formula 6f for 4 h before irradiation. Twenty-four hours after irradiation, cells were harvested by trypsinization and centrifugation and measured by cytometry by adding annexin V-FITC to […] per sample according to the manufacturer's specifications (Bender MedSystems, Vienna, Austria). Simultaneously, the cells were stained with PI. Flow cytometry data were analyzed by the WinMDI software.
# [3] = test system: BCC cells; test: Assessment of mitochondrial membrane potential (DiOC6); conditions: dosages equal to or greater than 2 μM, 1 J/cm^2 UVA (FIG. 5B)
# Method: (§2) (A) 6f-UVA induced ROS generation in BCC cells. Histogram of fluorescence vs cell count in BCC cells with various concentrations of 6f-UVA and stained with DCFH-DA. As a control, ROS was measured in the presence of catalase, a H2O2 scavenger. (B) The ΔΨmt of BCC cells after exposure to 6f-UVA. Cells were treated with 0, 2, and 4 μM Formula 6f for 4 h followed by 1 J/cm2 UVA irradiation, then stained with DiOC6 and analyzed immediately by flow cytometry as described under Materials and Methods. The number in M1 indicates the percentage of cells with reduced ΔΨmt. Approximately 10000 cells from each group were analyzed by flow cytometry. (C) Relative ATP levels were calculated as the percentage of the 0 μM level. Similar results were obtained in three independent experiments. *p<0.05, ** p<0.01 as compared with the control.
# BCC cells were cultured in 35-mm dishes and allowed to reach exponential growth for 24 h before treatment. Cells were pretreated with […] Formula 6f for 4 h before 1 J/cm^2 UVA irradiation. The medium was removed and the adherent cells trypsinized. […] The samples were analyzed immediately for fluorescence (FL-1 detector, filter 530/30 nm band pass) on a FACScan flow cytometer (Elite ESP, Beckman Coulter, Brea, Calif.). Histograms were analyzed using Windows Multiple Document interface software (WinMDI).
# [4] = test system: BCC cells; test: ATP content bioluminescence assay
# Method: as §2
# The amount of intracellular ATP was determined by bioluminescent assay based on the measurement of the light output of the luciferin-luciferase reaction. After treatment with various concentrations of 6f-UVA, total cell extracts from cultured BCC cells were obtained immediately by lysing solution. After centrifugation to remove cell debris, the supernatants were collected for ATP measurement. The total amount of intracellular ATP was determined according to the protocol provided with the ATPLite assay kit (Perkin Elmer, Boston, Mass.).
# [5] = test system: ERK; test: Western blot analysis of MAPK phosphorylation: ERK; conditions: BCC cells, 6f-UVA at 4 μM, compared with untreated control (FIG. 6A)
# Method: (A) After exposure to different concentration of 6f-UVA, cell lysates were collected and immunoblotted with specific antibodies as indicated. For the internal control, the same amounts of protein extract were also probed with antibody against actin. (B) As a control, the expression level of p-ERK was determined in the presence of oligomycin (25 μM) and ATP (1×10^−4M)
# Total cell extracts from cultured BCC cells were obtained by lysing the cells in ice-cold RIPA buffer (1×PBS, 1% NP-40, 0.5% sodium deoxycholate, 0.1% SDS) containing 100 μg/mL PMSF, 2 μg/mL aprotinin, 2 μg/mL leupeptin and 100 μg/mL NaF. After centrifugation at 14,000 g for 30 min, protein in the supernatants was quantified by Bradford method (Bio-Rad). Forty micrograms of protein per lane was applied in 10% SDS-poly-acrylamide gel. After electrophoresis, protein was transferred from the gel to polyvinylidene difluoride (PVDF) membrane (Millipore, Bedford, Mass.). The membranes were blocked at room temperature for 1 h in PBS+0.1% Tween 20 (PBS-T) containing 5% skim milk. After being briefly rinsed with PBS-T, the blots were probed with respective primary antibodies at room temperature for 2 h or at 4° C. overnight. Rabbit polyclonal antibodies against JNK (46 kDa), p38 (38 kDa), ERK (42, 44 kDa), and mouse monoclonal antibody against p-JNK, p-p38, p-ERK were purchased from Santa Cruz Biotechnology (Santa Cruz, Calif.). Mouse monoclonal antibody against actin was purchased from Chemicon Int. Inc. (Temecula, Calif.). For the blocking test, 25 μM oligomycin (Sigma, a mitochondria-specific F0F1 ATP synthase inhibitor) or 1×10^−4M ATP (Sigma) was added to the media 30 min before treated with 6f-UVA, respectively. The membrane was incubated with the corresponding horseradish peroxidase-labeled secondary antibody (Santa Cruz Biotechnology) at room temperature for 1 h. […] The relative amounts of specific proteins were quantified by densitometry scanning of X-ray films and analyzed by Eagle Eye Image System (Stratagene, La Jolla, Calif.)
structure (smiles),measurement,setting,value
"Nc1ccc(-c2nc3ccc(C(F)(F)F)cc3s2)cc1 [Formula 6f, 2-(4-Aminophenyl)-6-trifluoromethylbenzothiazole]",caspase-3 activity,[1],increased
same,necrotic cells (annexin V+/PI+),"[2]; BCC cells, 0, 2, and 4 μM, 1 J/cm^2 UVA (FIG. 4B)",no obvious change
same,apoptotic cells (annexin V+/PI−),[2]; 2 μM,19.5%
same,apoptotic cells (annexin V+/PI−),[2]; 4 μM,27.5%
same,mitochondrial membrane potential (ΔΨmt),[3],significant decline
same,decrease of intracellular ATP content compared with untreated control,[4]; 2 μM 6f-UVA,about 30%
same,decrease of intracellular ATP content compared with untreated control,[4]; 4 μM 6f-UVA,~45%
same,phosphorylation of ERK (p-ERK),[5],increased
